The values below come from publication PMC8224453, “A New PqsR Inverse Agonist Potentiates Tobramycin Efficacy to Eradicate Pseudomonas aeruginosa Biofilms” (Advanced Science, 2021).

“And” between values parts separate entries of the source, which are not always exact repeats. Equal entries are not always repeated. Where two headings read alike, the source gives them in different places.

For data set [1], the system named is eDNA production in PA biofilm. The data set can be described thus: Inhibition of eDNA production in biofilm. The following applies: Pseudomonas aeruginosa. In kind it is cell-based.
The nature of data set [2]: Metabolic stability, human liver S9. In kind it is in vitro ADME. The method, then: For the evaluation of combined phase I and phase II metabolic stability, the compound (1 μM) was incubated with 1 mg/mL pooled liver S9 fraction from the respective species (Xenotech), […]
2 mM NADPH, 1 mM UDPGA, 10 mM MgCl2, 5 mM GSH and 0.1 mM PAPS at 37 °C for […]
0, 5, 15, 30 or 60 min. The metabolic stability of Testosterone (1 μM) and verapamil (1 μM) […]
were determined in parallel to confirm the enzymatic activity of the S9 fraction. The […]
incubation was stopped by precipitation of S9 enzymes with 2 volumes of cold acetonitrile […]
containing internal standard (750 nM Diphenhydramine). Samples were stored on ice for 10 […]
min and precipitated protein was removed by centrifugation (10 min, 4 °C, 17,000 g).
Concentration of the remaining test compound at the different time points was analyzed by […]
LC-MS/MS (TSQ Quantum Access MAX, Thermo Fisher, Dreieich, Germany) and used to […]
determine half-life (t1/2). Stability of compound 4 in further S9 fractions are summarized in […]
Table S4. Metabolic stability studies in various S9 fractions. […]

The target of data set [3] is T1, CYP1A (Homo sapiens, UniProt P05177).
T1 construct: Cyprotex (contract assay)
T1 sequence (P05177 2-516 limits assumed): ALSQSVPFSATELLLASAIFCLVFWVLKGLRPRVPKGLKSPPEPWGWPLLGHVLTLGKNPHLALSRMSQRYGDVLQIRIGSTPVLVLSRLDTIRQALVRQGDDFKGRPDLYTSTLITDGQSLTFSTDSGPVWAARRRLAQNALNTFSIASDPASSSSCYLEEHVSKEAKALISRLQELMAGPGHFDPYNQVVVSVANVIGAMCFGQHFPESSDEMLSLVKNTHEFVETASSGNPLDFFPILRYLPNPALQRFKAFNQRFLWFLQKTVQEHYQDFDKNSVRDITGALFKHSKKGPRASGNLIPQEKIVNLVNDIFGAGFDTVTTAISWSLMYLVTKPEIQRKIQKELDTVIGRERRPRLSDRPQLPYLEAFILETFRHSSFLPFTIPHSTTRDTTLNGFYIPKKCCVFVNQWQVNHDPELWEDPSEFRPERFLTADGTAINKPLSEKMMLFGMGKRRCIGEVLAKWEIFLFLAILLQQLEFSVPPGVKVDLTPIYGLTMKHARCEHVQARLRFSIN
The data set is described as follows: CYP inhibition (Cyprotex). In kind it is in vitro ADME. The following applies: read-out: CYP inhibition 1A. Here is the method: (§1) 5.2. CYP and hERG inhibition
(§2) Assessment of in vitro drug safety regarding Cytochrom P450 (CYP) inhibition and inhibiton of human ether-à-go-go related gene (hERG) channel with a functional (patch-clamp-based) assay were performed at Cyprotex. Detailed information about the assays can be found in: https://www.cyprotex.com/admepk/in-vitro-metabolism/cytochrome-p450-inhibition, and […]

Data set [4] deals with T2, CYP2C19 (Homo sapiens, UniProt P33261).
T2 construct: Cyprotex (contract assay)
T2 sequence (P33261 whole entry): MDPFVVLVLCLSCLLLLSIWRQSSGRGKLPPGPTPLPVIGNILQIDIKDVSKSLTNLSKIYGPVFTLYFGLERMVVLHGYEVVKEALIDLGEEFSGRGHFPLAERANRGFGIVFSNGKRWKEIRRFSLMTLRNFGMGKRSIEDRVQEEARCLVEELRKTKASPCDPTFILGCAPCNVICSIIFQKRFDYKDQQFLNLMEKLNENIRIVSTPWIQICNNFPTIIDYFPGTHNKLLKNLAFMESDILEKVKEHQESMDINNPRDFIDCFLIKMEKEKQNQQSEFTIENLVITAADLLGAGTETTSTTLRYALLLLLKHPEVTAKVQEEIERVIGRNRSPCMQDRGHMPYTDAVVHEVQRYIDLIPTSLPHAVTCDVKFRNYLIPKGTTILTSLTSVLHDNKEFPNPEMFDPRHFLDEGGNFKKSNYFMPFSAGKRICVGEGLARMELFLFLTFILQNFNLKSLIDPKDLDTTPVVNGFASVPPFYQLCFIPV
The data set can be described thus: CYP inhibition (Cyprotex). In kind it is in vitro ADME. The note with it: read-out: CYP inhibition 2C19. Here is the method:
as §1, §2

For data set [5], the target named is T3, CYP2C9 (Homo sapiens, UniProt P11712).
T3 construct: Cyprotex (contract assay)
T3 sequence (P11712 whole entry): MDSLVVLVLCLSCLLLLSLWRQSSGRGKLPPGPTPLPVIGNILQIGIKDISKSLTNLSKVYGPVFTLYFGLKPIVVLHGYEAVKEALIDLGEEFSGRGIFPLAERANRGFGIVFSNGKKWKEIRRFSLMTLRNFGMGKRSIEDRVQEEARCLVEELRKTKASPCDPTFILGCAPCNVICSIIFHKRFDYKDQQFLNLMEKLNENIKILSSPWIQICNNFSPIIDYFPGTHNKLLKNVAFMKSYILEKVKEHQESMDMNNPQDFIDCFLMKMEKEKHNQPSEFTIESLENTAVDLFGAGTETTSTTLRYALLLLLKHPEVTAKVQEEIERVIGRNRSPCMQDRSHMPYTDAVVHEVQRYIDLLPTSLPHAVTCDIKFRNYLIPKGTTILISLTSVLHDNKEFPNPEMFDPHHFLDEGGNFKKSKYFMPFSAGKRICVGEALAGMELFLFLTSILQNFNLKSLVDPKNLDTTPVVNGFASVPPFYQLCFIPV
The data set can be described thus: CYP inhibition (Cyprotex). The following applies: read-out: CYP inhibition 2C9. In kind it is in vitro ADME. Here is the method:
as §1, §2

The target of data set [6] is T4, CYP2D6 (Homo sapiens, UniProt P10635).
T4 construct: Cyprotex (contract assay)
T4 sequence (P10635 whole entry): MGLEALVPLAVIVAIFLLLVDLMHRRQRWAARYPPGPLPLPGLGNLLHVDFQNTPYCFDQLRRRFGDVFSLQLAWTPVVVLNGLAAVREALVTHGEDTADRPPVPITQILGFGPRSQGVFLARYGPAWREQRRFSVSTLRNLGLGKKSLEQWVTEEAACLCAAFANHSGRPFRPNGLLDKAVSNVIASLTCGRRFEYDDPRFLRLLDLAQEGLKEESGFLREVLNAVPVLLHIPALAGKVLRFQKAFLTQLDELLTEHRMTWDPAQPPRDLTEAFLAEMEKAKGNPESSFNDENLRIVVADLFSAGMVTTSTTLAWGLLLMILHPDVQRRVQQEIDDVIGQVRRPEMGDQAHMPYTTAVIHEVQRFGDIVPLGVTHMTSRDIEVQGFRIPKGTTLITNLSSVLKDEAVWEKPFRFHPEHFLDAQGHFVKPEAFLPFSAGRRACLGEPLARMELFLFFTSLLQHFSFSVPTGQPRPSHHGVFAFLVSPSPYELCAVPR
The data set is described as follows: CYP inhibition (Cyprotex). The data set is classed as in vitro ADME. The note with it: read-out: CYP inhibition 2D6. The method, then: as §1, §2

The target of data set [7] is T5, CYP3A4 (Homo sapiens, UniProt P08684).
T5 construct: Cyprotex (contract assay)
T5 sequence (P08684 whole entry): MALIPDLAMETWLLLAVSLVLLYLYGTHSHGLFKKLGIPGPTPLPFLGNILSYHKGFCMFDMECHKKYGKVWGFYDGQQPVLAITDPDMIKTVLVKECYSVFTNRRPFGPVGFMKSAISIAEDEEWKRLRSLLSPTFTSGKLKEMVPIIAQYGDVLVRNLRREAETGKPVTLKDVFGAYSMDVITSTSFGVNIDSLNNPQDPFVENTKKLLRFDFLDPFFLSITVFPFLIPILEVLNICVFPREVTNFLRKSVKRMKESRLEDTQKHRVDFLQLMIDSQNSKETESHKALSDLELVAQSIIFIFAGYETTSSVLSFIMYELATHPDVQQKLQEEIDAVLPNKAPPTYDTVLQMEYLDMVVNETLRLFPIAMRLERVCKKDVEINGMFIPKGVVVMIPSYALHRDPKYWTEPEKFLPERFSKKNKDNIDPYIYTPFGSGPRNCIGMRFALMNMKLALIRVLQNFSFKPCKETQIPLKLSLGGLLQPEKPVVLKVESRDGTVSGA
The data set is described as follows: CYP inhibition (Cyprotex). In kind it is in vitro ADME. The following applies: read-out: CYP inhibition 3A4. The method, then: as §1, §2

A short description of data set [8]: Cytotoxicity assay in HepG2. The data set is classed as cell-based. The note with it: human, HepG2 cells, read-out: Cytotoxicity, viable cells.
Description: Hep G2 or HEK293 cells (2 × 10^5 cells per well) were seeded in 24-well, flat-bottomed plates. Culturing of cells, incubations, and OD measurements were performed as described previously with slight modifications.[8] Twenty-four hours after seeding the cells, the incubation was started by the addition of test compound in a final DMSO concentration of
1%. […] At least two independent measurements were performed for each compound.
For data set [9], the system named is planktonic PA14 wt. The data set can be described thus: MIC assay, microbroth dilution. In kind it is cell-based. The following applies: Pseudomonas aeruginosa. Here is the method:
composed of 15.5 g/L LB agar, 10 g/L peptone, 5 g/L NaCl and 5 g/L yeast extract, the resulting solution was sterilized before being plated.
The minimum inhibitory concentration […] of drug-free SqNPs, compound 4 prepared either in dimethyl sulfoxide (DMSO) or loaded in SqNPs, free Tob, Tob-loaded SqNPs, and Tob and compound 4 co-loaded SqNPs against planktonic PA14 wt were determined by standard microbroth dilution assays in 96-well plates. PA14 wt suspension was prepared from mid-log cultures in PPGAS medium and diluted to OD600 (absorption at 600 nm) 0.02 (2∙10^7 CFU/mL (CFU, colony-forming units)). PBS served as a control. Following 16 h incubation […]
nm) that were measured using a Tecan microplate reader Infinite M200Pro (Tecan, Crailsheim, Germany). The IC90 values are concentrations at which the growth of bacteria is inhibited by 90%. Three independent experiments were conducted in triplicate. Results are […]
Table S2. MIC assay against PA14 wt. Three independent experiments were conducted in triplicate.
Samples MIC (IC90 value) against PA14 wt
Drug-free SqNPs > 200 µg/mL
Compound (4) prepared in DMSO > 20 µM
Compound (4)-loaded SqNPs > 20 µM (a)
Tob loaded SqNPs 3.125 – 6.25 µg/mL (b)
Tob and compound (4) co-loaded SqNPs 3.125 – 6.25 µg/mL (b)
((4) concentration 20 µM)
(a) Compound (4) concentration
4.3. Minimum Biofilm Eradicating Concentration (MBEC) assay
Chemical and biological materials for in vitro assays. All chemicals were purchased from Sigma-Aldrich unless otherwise specified. Yeast extract was obtained from Fluka. Bacto™ Tryptone were obtained from BD Biosciences. Luria Bertani (LB) agar was obtained from Carl Roth. Gibco® PBS was obtained from Life Technologies. Purified water was prepared by a Milli-Q water purification system (Merk Millipore, Billerica, MA). The PA strain PA14
In general terms: Broth dilution looks for growth in wells or tubes with falling amounts of substance.

[10] abbreviates: pooled human liver S9 fraction, Table 2, read-out: Metabolic stability t 1/2 S9 human.

With `COc1ccc(-n2cc(CNc3ccnc(C(F)(F)F)c3)nn2)cc1Cl` [Compound 17], the IC50 in data set [1] is 1.6 ± 1.1 µM; in data set [3], 22.1 µM; in data set [4] it was 3.6 µM and 3.55 µM; in [5], > 25 µM; in data set [6], > 25 µM; in data set [7], > 25 µM. Moreover, the half-life at 1 μM in [2] (setting [10]) is 0.7 h. For the same compound, the viability at 48 h, 75 × 10^−6 M in [8] (HepG2, @75 × 10^−6 M) was found to be 68%.

Take `NC[C@H]1O[C@H](O[C@H]2[C@H](O)[C@@H](O[C@H]3O[C@H](CO)[C@@H](O)[C@H](N)[C@H]3O)[C@H](N)C[C@@H]2N)[C@H](N)C[C@@H]1O` [Tobramycin, tobramycin]: the MIC (commonly the lowest concentration found to suppress growth) in data set [9] (PA14, Tob concentration, 16 h, read-out: MIC (IC90 value) against PA14 wt) was 3.12 to 6.25 µg/mL; in data set [9] (PA14 wt, read-out: MIC in the planktonic setting) it was 3.12 to 6.25 µg/mL.

For the compound `FC(F)(F)c1cc(NCc2cn(-c3ccc(Oc4ccccc4)cc3)nn2)ccn1` [Compound 4], the IC50 in [1] is 0.22 ± 0.05 µM; in data set [3], > 25 µM; in [4] it was 20.3 µM; in [5], 16.4 µM; in [6] it was > 25 µM; in [7] it was 15 µM. In addition, the half-life at 1 μM in data set [2] (setting [10]) came to 2.82 h; in data set [2] (pooled liver S9 fraction, Table S4, read-out: t1/2 human liver S9) it was 1.13 ± 0.15 h. Further, the viability at 48 h, 25 × 10^−6 M in [8] (HepG2, @25 × 10^−6 M) amounted to 55%. Further, the MIC in data set [9] (PA14, compound (4) concentration, 16 h, read-out: MIC (IC90 value) against PA14 wt) is > 20 µM.
